# Laboratory results taken from paper PMC7162492, “Pharmacological and pharmacokinetic profile of the novel ocular hypotensive prodrug CKLP1 in Dutch-belted pigmented rabbits” (PLoS ONE, 2020).
# Several values for one entry are separate records, joined by “and”; a condition that tells them apart may be missing. Equal values may be shown once. Entries after “also recorded” stand apart in the source; their conditions may differ.
# Tests used:
# [1] = Plasma pharmacokinetics after topical eye drops of CKLP1, days 1, 4 and 8 (LC-MS/MS); format: in vivo, Dutch-belted pigmented rabbits; settings: for AUClast / Clast / Cmax / Tlast / Tmax / half-life: plasma
# Method: (§1) LC-MS/MS analysis of all fluids were performed using a Waters (Milford, MA) Acquity UPLC BEH C18 column (1.7 μm, 2.1 x 50 mm) with an Agilent EC-C18 pre-column (2.7 μm, 2.1 x 5 mm) and a gradient elution program containing ultra-pure water and acetonitrile with 2.5 mM ammonium formate, at a flow rate of 0.2 ml/min. Flavopiridol was used as an internal standard. The column and auto-sampler temperatures were maintained at 40°C and 4°C, respectively. Source parameters were capillary voltage, 2.6 kV; source temperature, 150°C; desolvation temperature, 500°C; cone gas flow, 150 L/h; and desolvation gas flow, 800 L/h. The cone voltages and collision energies for CKLP1, levcromakalim and flavopiridol were determined by MassLynx-Intellistart software, v4.1, and were 32, 34 and 72 V (cone) and 20, 14 and 30 eV (collision), respectively. The retention times were 4.5 minutes for CKLP1, 5.9 minutes for levcromakalim and 5.7 minutes for flavopiridol.
# (§2) To validate accurate measurement of CKLP1 and levcromakalim, known concentrations of CKLP1 (5, 10, 25, 50, 100, 250, 500 ng/ml) and levcromakalim (1, 5, 10, 25, 50, 100, 250 ng/ml) were added to human plasma (obtained from the Mayo Clinic Division of Transfusion Medicine under an Institutional Review Board approved protocol) to make calibration curves. Quality control was determined for each run by using known quantities of CKLP1 and levcromakalim to verify that the instrument recorded values consistent with the established standard curve. The effect of carryover was evaluated by injecting blank samples before and after running the standard samples for calibration curves. Unknown samples with signal to noise ratios >10 were recorded as acceptable concentrations. Samples with signal to noise ratios <10 were reported as not detectable (ND). Controls consisted of a double blank (without analytes and internal standard) and a single blank (only internal standard). The linearity of the calibration curves was determined by plotting the ratios of analytes to internal standard peak areas. The curve was fitted by least squares regression with a 1/x weighting for both CKLP1 and levcromakalim. Data was collected from 3–6.4 minutes for CKLP1 and 4–8 minutes for both levcromakalim and flavopiridol. Waters MassLynx Intellistart software v4.1 was used for analysis.
# (§3) All experiments with animals were pre-approved by the Institutional Animal Care and Use Committee of the Mayo Clinic, Rochester, MN and adhered to the recommendations in the Guide for the Care and use of Laboratory Animals of the National Institutes of Health, and the tenets of the ARVO Statement for the Use of Animals in Vision Research. Female Dutch-belted pigmented rabbits (age 7 months) were obtained from Covance Research Products, Inc. (Denver, PA). Rabbits were housed in pairs and kept in a climate controlled room with 12 h light and dark cycles. Animals had unrestrained access to water and standard rabbit food pellets at all times. Upon receipt, animals were acclimated for at least 5 days before initiation of the experiment. IOP was measured with a handheld rebound tonometer (Icare Tonovet, Colonial Medical Supply, Franconia, NH, USA) in conscious and minimally restrained, non-anesthetized rabbits as previously described. Briefly, daily IOP was calculated from the average of 3 independent IOP measurements at 3 different time points each day. These time points corresponded to 1 h, 4 h and 23 h post treatment on any given day. Rabbits that needed to be handled for IOP were subjected to sham IOP measurements for two days prior to initiation of experiment. Rabbits (n = 3) were injected intravenously through the right ear vein with CKLP1 as a bolus dose equal to 0.25 mg/kg body weight. Additional rabbits were treated topically through instillation of 50 μl eye drops of a 10 mM (4.1 mg/ml) solution of CKLP1 in sterile PBS. […]
# [2] = test system: Dutch-belted pigmented rabbits; test: Tolerability observation during topical CKLP1 treatment for 1, 4 or 8 days; format: in vivo; settings: topical CKLP1 both eyes for 1, 4 or 8 days
# Source text: as §3, with “experiment.” for “experiment. Rabbits (n = 3) were injected intravenously through the right ear vein with CKLP1 as a bolus dose equal to 0.25 mg/kg body weight. Additional rabbits were treated topically through instillation of 50 μl eye drops of a 10 mM (4.1 mg/ml) solution of CKLP1 in sterile PBS.”
# [3] = Tissue and fluid distribution after 90 days of daily topical CKLP1 (LC-MS/MS); format: in vivo, Dutch-belted pigmented rabbits; settings: topical eye drops 10 mM CKLP1, 90 consecutive days
# Method: as §1, §2, §3
# [4] = test system: Dutch-belted pigmented rabbits; test: Histology of tissues at necropsy after 90 days of topical CKLP1; format: in vivo; settings: topical CKLP1 once daily, masked veterinary pathologist
# Source text: as §3, with “day.” for “day. These time points corresponded to 1 h, 4 h and 23 h post treatment on any given day. Rabbits that needed to be handled for IOP were subjected to sham IOP measurements for two days prior to initiation of experiment. Rabbits (n = 3) were injected intravenously through the right ear vein with CKLP1 as a bolus dose equal to 0.25 mg/kg body weight. Additional rabbits were treated topically through instillation of 50 μl eye drops of a 10 mM (4.1 mg/ml) solution of CKLP1 in sterile PBS.”
# To assess cell and tissue morphology following CKLP1 treatment for 90 days, necropsy was performed on all 6 treated rabbits. Representative hematoxylin and eosin stained sections from 34 tissues were isolated, processed and assessed in a masked manner by a certified veterinary pathologist. […]
# [5] = eye drops 10 mM CKLP1 both eyes once daily, Day 4
# [6] = eye drops 10 mM CKLP1 both eyes once daily, Day 8
# [7] = eye drops 10 mM CKLP1 both eyes, Day 1
substance,measurement,setting,value
"sodium [CKLP1, sodium [(3S,4R)-6-cyano-2,2-dimethyl-4-(2-oxopyrrolidin-1-yl)-chroman-3-yl phosphate]]",AUClast,[1]; [5],360 ± 82 ng·h/mL
same,Clast,[1]; [5],4.2 ± 2.6 ng/mL
same,Cmax,[1]; [5],30.6 ± 7.3 ng/mL
same,Tlast,[1]; [5],24.0 ± 0.0 h
same,Tmax,[1]; [5],325.0 ± 268.5 min
same,half-life,[1]; [5],6.7 ± 2.0 min
same,AUClast,[1]; [6],341 ± 45.2 ng·h/mL
same,Clast,[1]; [6],4.2 ± 1.5 ng/mL
same,Cmax,[1]; [6],36.3 ± 13.3 ng/mL
same,Tlast,[1]; [6],24.0 ± 0.0 h
same,Tmax,[1]; [6],20.0 ± 8.7 min
same,half-life,[1]; [6],7.7 ± 3.0 min
same,AUClast,[1]; [7],271 ± 55 ng·h/mL
same,Clast,[1]; [7],5.1 ± 1.1 ng/mL
same,Cmax,[1]; [7],20.0 ± 6.3 ng/mL
same,Tlast,[1]; [7],24.0 ± 0.0 h
same,Tmax,[1]; [7],360.0 ± 207.9 min
same,half-life,[1]; [7],10.7 ± 4.1 min
same,Amount in plasma after topical CKLP1,[1]; topical 10 mM CKLP1 in the eye,trace amounts
same,"Tolerability, visible signs of toxicity or discomfort",[2],no visible signs of toxicity or discomfort
same,Concentration in Brain,[3],not detected
same,Concentration in Heart,[3],not detected
same,Concentration in Kidney,[3],15.8 ±1.8 ng/g and 15.8 ± 1.8 (n = 6/6) ng/g
same,Concentration in Muscle,[3],not detected
same,Concentration in Plasma,[3],no detectable levels
same,Concentration in aqueous humor,[3],undetectable
same,Concentration in vitreous humor,[3],undetectable
same,Histological changes in tissues,[4],No observable histological changes; also recorded: did not show any observable histological changes; also recorded: No observable differences in histology
